Reference: publication PMC4788153, “Impact of Cytochrome P450 2D6 Function on the Chiral Blood Plasma Pharmacokinetics of 3,4-Methylenedioxymethamphetamine (MDMA) and Its Phase I and II Metabolites in Humans” (PLoS ONE, 2016)
Like-named read-outs stand apart in the source and are kept apart here.

Test: Chiral plasma pharmacokinetics of MDMA and its phase I and II metabolites after controlled MDMA administration
Format: in vivo, human
Conditions: for AUC(0-t) / Tmax / Cmax / half-life: human, plasma; for change in AUC24 after bupropion pretreatment / change in Cmax after bupropion pretreatment: bupropion+MDMA vs placebo+MDMA, unsigned = increase
Procedure: Blood plasma samples were analyzed non-stereoselectively as reported previously and reanalyzed for the present report using liquid chromatography-mass spectrometry/mass spectrometry after chiral derivatization with Marfey’s reagent as described previously. The method was fully validated, including selectivity, recovery, matrix effects, bias and imprecision, stability, and limit of quantification.

[1] = both sexes, oral, 125 mg, placebo+MDMA (125 mg), CYP2D6 EM, n=13, plasma, read-out: AUC0-24h R
[2] = both sexes, oral, 125 mg, placebo+MDMA (125 mg), CYP2D6 EM, n=13, plasma, read-out: tmax R
[3] = both sexes, oral, bupropion+MDMA (125 mg), CYP2D6 EM (EM/Bup), n=13, plasma, read-out: AUC0-24h R
[4] = both sexes, oral, bupropion+MDMA (125 mg), CYP2D6 EM (EM/Bup), n=13, plasma, read-out: Cmax R
[5] = both sexes, oral, bupropion+MDMA (125 mg), CYP2D6 EM (EM/Bup), n=13, plasma, read-out: t1/2 R (converted)
[6] = both sexes, oral, bupropion+MDMA (125 mg), CYP2D6 EM (EM/Bup), n=13, plasma, read-out: tmax R
[7] = both sexes, oral, placebo+MDMA (125 mg), CYP2D6 EM, n=13, plasma, read-out: Cmax R
[8] = both sexes, oral, placebo+MDMA (125 mg), CYP2D6 EM, n=13, plasma, read-out: t1/2 R (converted)
[9] = bupropion vs placebo pretreatment, CYP2D6 EMs
[10] = bupropion+MDMA (125 mg), CYP2D6 EM (EM/Bup), n=13, plasma
[11] = placebo+MDMA (125 mg), CYP2D6 EM, n=13, plasma
[12] = placebo+MDMA (125 mg), CYP2D6 IM, n=3, plasma
[13] = placebo-pretreated EMs, same-configuration MDMA enantiomer

For `CN[C@H](C)Cc1ccc2c(c1)OCO2` [R-MDMA, 3,4-methylenedioxymethamphetamine], the AUC(0-t) [1] was 8.7 µM·h, the Tmax [2] was 2.9 h and the AUC(0-t) [3] was 10.9 µM·h. It also gave a Cmax [4] of 750 nM, a half-life [5] of 10.8 h and a Tmax [6] of 3.3 h. For the same compound, the Cmax [7] was 690 nM, the half-life [8] was 8.2 h and the “prolongation of t1/2 after bupropion pretreatment” value [9] was 31%. The “reduction of Cl/F after bupropion pretreatment” value [9] was -23%, the “AUCtotal R” value [10] was 14.2 (3.7) μmol/l*h-1 and the “CL/F R” value [10] was 31.3 (8.2) l/h. The “change in AUC24 after bupropion pretreatment” value (shortened to “change in AUC24”) (CYP2D6 EMs) was 25%, the “change in Cmax after bupropion pretreatment” value (shortened to “change in Cmax”) (CYP2D6 EMs) was 9% and the “AUCtotal R” value [11] was 10.4 (3.6) μmol/l*h-1. For the same compound, the “CL/F R” value [11] was 40.4 (14.2) l/h, the “AUCtotal R” value [12] was 14.5 (4.3) μmol/l*h-1 and the “CL/F R” value [12] was 29.8 (7.4) l/h.

With `CN[C@H](C)Cc1ccc(OS(=O)(=O)O)c(O)c1` [R-DHMA 4-sulfate] the “metabolite/MDMA ratio, mean constant (after approximately 2 h)” value (from here on “metabolite/MDMA ratio, mean constant”) (IMs) was 0.05, the “metabolite/MDMA ratio, mean initial (highest, first hour)” value (“metabolite/MDMA ratio, mean initial” below) (IMs) was 0.94 and the AUC(0-t) [1] was 1.3 µM·h. It also gave a Tmax [2] of 2 h, an AUC(0-t) [3] of 0.71 µM·h and a Cmax [4] of 37 nM. The half-life [5] was 49.9 h, the Tmax [6] was 3.2 h and the Cmax [7] was 80 nM. For the same compound, the half-life [8] was 17.5 h, the “AUCtotal R” value [10] was 2.9 (2.2) μmol/l*h-1 and the “change in AUC24” value (CYP2D6 EMs) was -43%. The “change in Cmax” value (CYP2D6 EMs) was -54%, the “metabolite/MDMA ratio, mean constant” value (bupropion-pretreated EMs) was 0.05 and the “metabolite/MDMA ratio, mean initial” value (bupropion-pretreated EMs) was 0.89. For the same compound, the “AUCtotal R” value [11] was 2.4 (1.7) μmol/l*h-1, the “AUCtotal R” value [12] was 1.5 (1.0) μmol/l*h-1 and the “metabolite/MDMA ratio, mean constant” value (placebo-pretreated EMs) was 0.13. For the same compound, the “metabolite/MDMA ratio, mean initial” value [13] was 4.9.

For `CC(N)Cc1ccc2c(c1)OCO2` (stereo not drawn) [S-MDA, 3,4-methylenedioxyamphetamine], the AUC(0-t) (both sexes, oral, 125 mg, placebo+MDMA (125 mg), CYP2D6 EM, n=13, plasma, read-out: AUC0-24h S) was 0.61 µM·h, the Cmax (both sexes, oral, 125 mg, placebo+MDMA (125 mg), CYP2D6 EM, n=13, plasma, read-out: Cmax S) was 41 nM and the half-life (both sexes, oral, 125 mg, placebo+MDMA (125 mg), CYP2D6 EM, n=13, plasma, read-out: t1/2 S (converted)) was 9.2 h. For the same compound, the Tmax (both sexes, oral, 125 mg, placebo+MDMA (125 mg), CYP2D6 EM, n=13, plasma, read-out: tmax S) was 4.6 h, the AUC(0-t) (both sexes, oral, bupropion+MDMA (125 mg), CYP2D6 EM (EM/Bup), n=13, plasma, read-out: AUC0-24h S) was 0.49 µM·h and the Cmax (both sexes, oral, bupropion+MDMA (125 mg), CYP2D6 EM (EM/Bup), n=13, plasma, read-out: Cmax S) was 31 nM. For the same compound, the half-life (both sexes, oral, bupropion+MDMA (125 mg), CYP2D6 EM (EM/Bup), n=13, plasma, read-out: t1/2 S (converted)) was 11.1 h, the Tmax (both sexes, oral, bupropion+MDMA (125 mg), CYP2D6 EM (EM/Bup), n=13, plasma, read-out: tmax S) was 5.2 h and the “AUCtotal S” value [10] was 0.69 (0.17) μmol/l*h-1. The “change in AUC24” value (CYP2D6 EMs) was -20%, the “change in Cmax” value (CYP2D6 EMs) was -24% and the AUC(0-t) (im, placebo+MDMA (125 mg), CYP2D6 IM, n=3, plasma, read-out: AUC0-24h S) was 0.65 µM·h. For the same compound, the Cmax (im, placebo+MDMA (125 mg), CYP2D6 IM, n=3, plasma, read-out: Cmax S) was 42 nM, the half-life (im, placebo+MDMA (125 mg), CYP2D6 IM, n=3, plasma, read-out: t1/2 S (converted)) was 10.6 h and the Tmax (im, placebo+MDMA (125 mg), CYP2D6 IM, n=3, plasma, read-out: tmax S) was 4.4 h. For the same compound, the “AUCtotal S” value [11] was 0.76 (0.27) μmol/l*h-1 and the “AUCtotal S” value [12] was 0.87 (0.31) μmol/l*h-1.

With `CN[C@H](C)Cc1ccc(O)c(OS(=O)(=O)O)c1` [R-DHMA 3-sulfate] the “metabolite/MDMA ratio, mean constant” value (IMs) was 0.10, the “metabolite/MDMA ratio, mean initial” value (IMs) was 1.9 and the AUC(0-t) [1] was 2.4 µM·h. It also gave a Tmax [2] of 2.8 h, an AUC(0-t) [3] of 0.96 µM·h and a Cmax [4] of 50 nM. The half-life [5] was 46.2 h, the Tmax [6] was 3.8 h and the Cmax [7] was 150 nM. For the same compound, the half-life [8] was 20.2 h, the “AUCtotal R” value [10] was 3.1 (2.1) μmol/l*h-1 and the “change in AUC24” value (CYP2D6 EMs) was -61%. The “change in Cmax” value (CYP2D6 EMs) was -68%, the “metabolite/MDMA ratio, mean constant” value (bupropion-pretreated EMs) was 0.10 and the “metabolite/MDMA ratio, mean initial” value (bupropion-pretreated EMs) was 0.4. For the same compound, the “AUCtotal R” value [11] was 4.7 (2.5) μmol/l*h-1, the “AUCtotal R” value [12] was 2.6 (2.4) μmol/l*h-1 and the “metabolite/MDMA ratio, mean constant” value (placebo-pretreated EMs) was 0.22. For the same compound, the “metabolite/MDMA ratio, mean initial” value [13] was 9.9.

`CC(N)Cc1ccc2c(c1)OCO2` (stereo not drawn) [R-MDA, 3,4-methylenedioxyamphetamine] gave an AUC(0-t) [1] of 0.26 µM·h, a Tmax [2] of 12.5 h and an AUC(0-t) [3] of 0.19 µM·h. For the same compound, the Cmax [4] was 10 nM, the Tmax [6] was 14.9 h and the Cmax [7] was 14 nM. The “change in AUC24” value (CYP2D6 EMs) was -26% and the “change in Cmax” value (CYP2D6 EMs) was -27%.
